Biological target: T1, JNK1 (Homo sapiens, UniProt P45983)
T1 construct: purchased Carna Biosciences
Assay: JNK1 biochemical assays (one or more of: time resolved fluorescence, Z'-LYTE Cascade, radioactive)
Conditions: Table 3; JNK1 IC50 activity level; read-out: Act. Level
Protocol: JNK1 Assay. A 384-well time resolved fluorescence assay was used to monitor JNK1 activity. The JNK1 assay was run in the following assay buffer: 50 mM HEPES, 10 mM MgCl2, 1 mM EGTA, 2 mM DTT, and 0.01% Tween 20. To initiate the reaction 100 nM of ULight™-labeled 4EBP1 peptide (Perkin-Elmer) and 5 μM of ATP were mixed with 500 pM of JNK1 (Carna Biosciences), for a total assay volume of 20 μL in each well. The assay was incubated at room temperature for 1 h and terminated using a mixture of 30 mM EDTA and 4 nM Eu-anti-4EBP1, by adding 20 μL of stop solution to each well. Plates were read on a Perkin-Elmer Envision Reader.
JNK1 Assay. The JNK1 Z′-LYTE® Cascade kinase assay was run in the following buffer: 50 mM HEPES at pH 7.5, 0.01% BRIJ-35, 10 mM MgCl2, 1 mM EGTA, and 1 mM DTT. […] The assay was incubated at room temperature for 1 h. […] The data was then read on a fluorescence plate reader and analyzed.
JNK1 assay. The radioactive JNK kinase assay was carried out in a 96-well plate format at a final volume of 100 μL. […] JNK1 was diluted in the following dilution buffer (20 mM HEPES pH 7.6, 0.1 mM EDTA, 2.5 mM MgCl2, 0.004% (w/v) Triton X100, 2 μg/ml Leupeptin, 20 mM B-glycerol phosphate, 0.1 mM Na3VO4 dithiothreitol) and then pre-mixed with cJun diluted in the substrate solution buffer (20 mM HEPES pH 7.6, 50 mM NaCl, 0.1 mM EDTA, 2.5 mM MgCl2, 0.05% (w/v) Triton X100). […] The enzyme, substrate and inhibitor mixture was allowed to equilibrate at room temperature for 15 minutes. The reaction was started by the addition of 10 μL of 10×ATP in kinase buffer (130 mM MgCl2, 6 mM dithiothreitol, 150 mM para-nitrophenyl phosphate, 100 μCi/ml γ-[^33P]-ATP). Reactions were allowed to proceed for 60 minutes before precipitation of protein via trichloroacetic acid (7.2% TCA final). […] The precipitate was washed with Phosphate Buffered Saline and the amount of phosphate incorporated into cJun was quantified by scintillation counting using a Packard Topcount-NXT. All assays were conducted under conditions where phosphate incorporation was linear with respect to time and enzyme concentration.

T1 sequence (P45983 whole entry): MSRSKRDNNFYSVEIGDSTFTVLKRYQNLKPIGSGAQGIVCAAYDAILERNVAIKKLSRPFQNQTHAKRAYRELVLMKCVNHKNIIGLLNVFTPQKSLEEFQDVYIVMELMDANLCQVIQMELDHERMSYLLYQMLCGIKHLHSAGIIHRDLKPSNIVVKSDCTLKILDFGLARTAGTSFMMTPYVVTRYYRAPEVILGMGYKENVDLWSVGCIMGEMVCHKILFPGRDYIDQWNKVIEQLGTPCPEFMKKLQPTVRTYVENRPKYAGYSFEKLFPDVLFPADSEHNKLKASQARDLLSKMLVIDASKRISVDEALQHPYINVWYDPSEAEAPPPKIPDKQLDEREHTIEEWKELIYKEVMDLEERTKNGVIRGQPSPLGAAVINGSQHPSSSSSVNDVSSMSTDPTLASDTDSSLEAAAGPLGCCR

With N#Cc1cnc(N[C@H]2CC[C@H](O)CC2)nc1N[C@@H]1CCCC[C@H](O)C1 [Example C-36] the IC50 was less than 200 nM.
With CCO[C@H]1CC[C@H](Nc2ncc(C#N)c(N[C@H]3CCOC3)n2)CC1 [Example C-37, 2-((1r,4S)-4-ethoxycyclohexylamino)-4-((S)-tetrahydrofuran-3-ylamino)pyrimidine-5-carbonitrile] the IC50 was 200 to 800 nM.
CC(C)(C)Nc1ncc(C#N)c(N[C@@H]2CCCC[C@H](O)C2)n1 [Example C-38, 2-(tert-butylamino)-4-((1R,3S)-3-hydroxycycloheptylamino) pyrimidine-5-carbonitrile] was tested, and the IC50 was less than 200 nM.
CCO[C@H]1CC[C@H](Nc2ncc(C#N)c(N[C@@H]3CCOC3)n2)CC1 [Example C-39, 2-((1r,4R)-4-ethoxycyclohexylamino)-4-((R)-tetrahydrofuran-3-ylamino)pyrimidine-5-carbonitrile] gave an IC50 of 1000 to 10000 nM.
C[C@]1(O)CCC[C@@H](Nc2nc(N[C@H]3CC[C@H](OCC(F)(F)F)CC3)ncc2C#N)C1 [Example C-40] gave an IC50 of less than 200 nM.
With CCO[C@H]1CC[C@H](Nc2ncc(C#N)c(N[C@@H]3CC[C@@H](C)[C@H](O)C3)n2)CC1 [Example C-41, 2-((1r,4R)-4-ethoxycyclohexylamino)-4-((1R,3R,4R)-3-hydroxy-4-methylcyclohexylamino) pyrimidine-5-carbonitrile] the IC50 was less than 200 nM.
CO[C@H]1CC[C@H](Nc2ncc(C#N)c(N[C@@H]3CCCC[C@@H](O)C3)n2)CC1 [Example C-42, 4-((1R,3R)-3-hydroxycycloheptylamino)-2-((1r,4R)-4-methoxycyclohexylamino) pyrimidine-5-carbonitrile] gave an IC50 of less than 200 nM.
CN(C)C(=O)[C@H]1CC[C@H](Nc2ncc(C#N)c(N[C@@H]3CCC[C@](C)(O)C3)n2)CC1 [Example C-43, (1R,4r)-4-(5-cyano-4-((1R,3S)-3-hydroxy-3-methylcyclohexylamino)pyrimidin-2-ylamino)-N,N-dimethylcyclohexanecarboxamide] showed an IC50 of less than 200 nM.
Compound C[C@]1(O)CCC[C@@H](Nc2nc(N[C@H]3CC[C@H](OC(F)F)CC3)ncc2C#N)C1 [Example C-44, 2-((1r,4R)-4-(difluoromethoxy)cyclohexylamino)-4-((1R,3S)-3-hydroxy-3-methylcyclohexylamino) pyrimidine-5-carbonitrile] has an IC50 of less than 200 nM.
CN(C)C(=O)[C@H]1CC[C@H](Nc2ncc(C#N)c(N[C@@H]3CCCC[C@H](O)C3)n2)CC1 [Example C-45, (1R,4r)-4-(5-cyano-4-((1R,3S)-3-hydroxycycloheptylamino)pyrimidin-2-ylamino)-N,N-dimethylcyclohexanecarboxamide] was tested, and the IC50 was less than 200 nM.
In the case of CO[C@H]1CC[C@H](Nc2ncc(C#N)c(N[C@@H]3CC[C@@H](C)C(O)C3)n2)CC1 (stereo partly drawn) [Example C-46, 4-((1R,3R,4R)-3-hydroxy-4-methylcyclohexylamino)-2-((1r,4R)-4-methoxycyclohexylamino) pyrimidine-5-carbonitrile], the IC50 is reported as less than 200 nM.
With C[C@@H]1CC[C@@H](Nc2nc(N[C@H]3CC[C@H](C(=O)N(C)C)CC3)ncc2C#N)C[C@H]1O [Example C-47, (1R,4r)-4-(5-cyano-4-((1R,3R,4R)-3-hydroxy-4-methylcyclohexylamino)pyrimidin-2-ylamino)-N,N-dimethylcyclohexanecarboxamid] the IC50 was less than 200 nM.
For C[C@@H]1CC[C@@H](Nc2nc(N[C@H]3CC[C@H](O)CC3)ncc2C#N)C[C@H]1O [Example C-48, 4-((1R,3R,4R)-3-hydroxy-4-methylcyclohexylamino)-2-((1r,4R)-4-hydroxycyclohexylamino) pyrimidine-5-carbonitrile], the IC50 was less than 200 nM.
C[C@@H]1CC[C@@H](Nc2nc(N[C@H]3CC[C@H](OCC(F)(F)F)CC3)ncc2C#N)C[C@H]1O [Example C-49] gave an IC50 of less than 200 nM.
For CO[C@H]1CC[C@H](Nc2ncc(C#N)c(N[C@@H]3CCCC[C@](C)(O)C3)n2)CC1 [Example C-50, 4-((1R,3S)-3-hydroxy-3-methylcycloheptylamino)-2-((1r,4R)-4-methoxycyclohexylamino) pyrimidine-5-carbonitrile], the IC50 was 200 to 800 nM.
With CO[C@H]1CC[C@H](Nc2ncc(C#N)c(N[C@H]3CCCC[C@](C)(O)C3)n2)CC1 [Example C-51, 4-((1S,3S)-3-hydroxy-3-methylcycloheptylamino)-2-((1r,4S)-4-methoxycyclohexylamino) pyrimidine-5-carbonitrile] the IC50 was 1000 to 10000 nM.
Work on CO[C@H]1CC[C@H](Nc2ncc(C#N)c(N[C@H]3CCCC[C@@](C)(O)C3)n2)CC1 [Example C-52, 4-((1S,3R)-3-hydroxy-3-methylcycloheptylamino)-2-((1r,4S)-4-methoxycyclohexylamino) pyrimidine-5-carbonitrile] yielded an IC50 of less than 200 nM.
With CO[C@H]1CC[C@H](Nc2ncc(C#N)c(N[C@@H]3CCCC[C@@](C)(O)C3)n2)CC1 [Example C-53, 4-((1R,3R)-3-hydroxy-3-methylcycloheptylamino)-2-((1r,4R)-4-methoxycyclohexylamino) pyrmidine-5-carbonitrile] the IC50 was less than 200 nM.
CN(C)C(=O)[C@H]1CC[C@H](Nc2ncc(C#N)c(N[C@@H]3CCCOC3)n2)CC1 [Example C-54, (1R,4r)-4-(5-cyano-4-((R)-tetrahydro-2H-pyran-3-ylamino)pyrimidin-2-ylamino)-N,N-dimethylcyclohexanecarboxamide] gave an IC50 of 200 to 800 nM.
Compound CC(C)CNc1nc(N[C@H]2CC[C@H](O)CC2)ncc1C#N [Example C-55, 2-((1r,4r)-4-hydroxycyclohexylamino)-4-(isobutylamino)pyrimidine-5-carbonitrile] has an IC50 of 1000 to 10000 nM.
Work on [2H]C([2H])([2H])O[C@H]1CC[C@H](Nc2ncc(C#N)c(N[C@@H]3CCC[C@](C)(O)C3)n2)CC1 [Example C-56, 4-((1R,3S)-3-hydroxy-3-methylcyclohexylamino)-2-((1r,4R)-4-((^2H3)methyloxy)cyclohexyl-amino)pyrimidine-5-carbonitrile] yielded an IC50 of less than 200 nM.
CO[C@H]1CC[C@](C)(Nc2ncc(C#N)c(N[C@@H]3CCC[C@H](O)C3)n2)CC1 [Example C-57, 4-((1R,3S)-3-hydroxycyclohexylamino)-2-((1r,4R)-4-methoxy-1-methylcyclohexylamino) pyrimidine-5-carbonitrile] gave an IC50 of 200 to 800 nM.
With N#Cc1cnc(N[C@H]2CC[C@H](O)CC2)nc1NC1CC(F)(F)C1 [Example C-58, 4-(3,3-difluorocyclobutylamino)-2-((1r,4r)-4-hydroxycyclohexylamino) pyrimidine-5-carbonitrile] the IC50 was 1000 to 10000 nM.
With CC(C)(C)Nc1ncc(C#N)c(N[C@@H]2CCC[C@](C)(O)C2)n1 [Example C-59, 2-(tert-butylamino)-4-((1R,3S)-3-hydroxy-3-methylcyclohexylamino) pyrimidine-5-carbonitrile] the IC50 was 200 to 800 nM.
In the case of CC(C)CCNc1nc(N[C@H]2CC[C@H](O)CC2)ncc1C#N [Example C-60, 2-((1r,4r)-4-hydroxycyclohexylamino)-4-(isopentylamino)pyrimidine-5-carbonitrile], the IC50 is reported as 1000 to 10000 nM.
Work on N#Cc1cnc(N[C@H]2CC[C@H](O)CC2)nc1NC12CC(C1)C2 [Example C-61, 4-(bicyclo[1.1.1]pentan-1-ylamino)-2-((1r,4r)-4-hydroxycyclohexylamino) pyrimidine-5-carbonitrile] yielded an IC50 of 200 to 800 nM.
For CCC(C)(C)Nc1nc(N[C@H]2CC[C@H](O)CC2)ncc1C#N [Example C-62, 2-((1r,4r)-4-hydroxycyclohexylamino)-4-(tert-pentylamino)pyrimidine-5-carbonitrile], the IC50 was less than 200 nM.
CC(C)(C)Nc1ncc(C#N)c(NC(C)(C)C)n1 [Example C-63, 2,4-bis(tert-butylamino)pyrimidine-5-carbonitrile] was tested, and the IC50 was 200 to 800 nM.
N#Cc1cnc(NC2CCC(F)(F)CC2)nc1N[C@@H]1CCC[C@@H]1CO [Example C-64, 2-(4,4-difluorocyclohexylamino)-4-((1R,2S)-2-(hydroxymethyl)cyclopentylamino) pyrimidine-5-carbonitrile] was tested, and the IC50 was 200 to 800 nM.
Compound C[C@@H]1CC[C@@H](Nc2nc(NC3CCC3)ncc2C#N)C[C@H]1O [Example C-65, 2-(cyclobutylamino)-4-((1R,3R,4R)-3-hydroxy-4-methylcyclohexylamino) pyrimidine-5-carbonitrile] has an IC50 of less than 200 nM.

Reference: patent US12129237B2, “Substituted diaminocarboxamide and diaminocarbonitrile pyrimidines, compositions thereof, and methods of treatment therewith” (SIGNAL PHARMACEUTICALS, LLC, priority 2011, dated 2024)
